# Data taken from paper PMC3933948 (Bioorganic & medicinal chemistry, 2013).
# Read-outs that look alike come from different tables or passages of the source.
# Legend:
# [1] = system: non-estrogen dependent MCF-7 cells; assay: Growth inhibition of non-estrogen dependent MCF-7 cells; type: cell-based, human; conditions: MCF-7 cells raised without estrogen
# [2] = biological target: T1, recombinant human aromatase (CYP19) (Homo sapiens, UniProt P11511); assay: Fluorescence-based aromatase activity assay; type: biochemical; conditions: for fold increase in aromatase inhibitory potency vs precursor 1e: compared with 3-(pyridin-3-yl)chroman-4-one 1e; for aromatase inhibition (in words): enzymatic assay
# T1 sequence (P11511 1-503): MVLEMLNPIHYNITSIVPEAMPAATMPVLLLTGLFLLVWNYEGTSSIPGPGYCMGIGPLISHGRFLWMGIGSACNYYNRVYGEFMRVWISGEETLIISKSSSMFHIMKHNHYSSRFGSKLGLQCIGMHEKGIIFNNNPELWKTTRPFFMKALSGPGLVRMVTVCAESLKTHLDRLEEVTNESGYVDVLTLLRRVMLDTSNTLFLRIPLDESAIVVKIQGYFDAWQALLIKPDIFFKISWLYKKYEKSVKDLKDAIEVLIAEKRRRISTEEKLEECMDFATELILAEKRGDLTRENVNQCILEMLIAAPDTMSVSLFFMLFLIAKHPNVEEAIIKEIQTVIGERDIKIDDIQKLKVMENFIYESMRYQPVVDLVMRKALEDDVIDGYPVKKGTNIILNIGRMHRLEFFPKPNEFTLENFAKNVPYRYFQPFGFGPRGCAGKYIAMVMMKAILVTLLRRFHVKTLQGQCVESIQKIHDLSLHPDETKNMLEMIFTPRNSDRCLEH
# MCF-7 cells = assay: Estrogen-dependent MCF-7 growth inhibition; type: cell-based, human; conditions: estrogen-dependent MCF-7 cells
# [3] = biological target: T1, recombinant human aromatase (CYP19); conditions: AI previously synthesized in the authors' lab ref 9; cited from earlier work
Structure (SMILES),fold increase in aromatase inhibitory potency vs precursor 1e [2],anti-proliferative activity on MCF-7 (in words) (MCF-7 cells),aromatase inhibition (in words) [2],further results
"COc1ccc2c(c1)C(=O)C(c1cccnc1)CO2 (stereo not shown) [3c, 6-methoxy-3-(pyridin-3-yl)chroman-4-one]",more than 2 fold,inactive,–,growth inhibition (in words) [1]: no growth inhibition was observed
"O=C1c2ccccc2OCC1c1ccc(-c2ccccc2)cc1 (stereo not shown) [1c, 3-(biphenyl-4-yl)chroman-4-one]",–,did not show anti-cancer cell activity,–,aromatase inhibition (in words) [3]: inactive
"COc1ccc2c(c1)C(=O)C(c1ccc(Oc3ccccc3)cc1)CO2 (stereo not shown) [3b, 6-Methoxy-3-(4-phenoxyphenyl)chroman-4-one]",–,–,No significant inhibition,–
"O=C1c2cc(F)ccc2OCC1c1cccnc1 (stereo not shown) [3e, 6-Fluoro-3-(pyridin-3-yl)chroman-4-one]",7 fold,inactive,–,fold increase in aromatase inhibitory potency vs parent 1a ([2]; compared with parent molecule 1a): 36 fold
"O=C1c2c(ccc3ccccc23)OCC1c1ccc(Oc2ccccc2)cc1 (stereo not shown) [3a, 2-(4-Phenoxyphenyl)-2,3-dihydro-1H-benzo[f]chromen-1-one]",–,–,No significant inhibition,–
